# Measurements as given in patent publication EP2405274A1, “Monitoring anticoagulant therapy and identifying reversible direct factor Xa inhibitors” (Good biomarker Sciences B.V., priority 2010, dated 2012).
# Tests used:
# Assay type in all cases: biochemical
# [1] = test system: pooled human citrated plasma; assay: Prothrombin time (PT) clotting assay with Simplastin excel S; design: Rivaroxaban-prolonged PT / Ratio range: dose or concentration left out as unconfirmed
# Experimental: (§1) The experiments here below were performed with pooled human citrated plasma which was made from a minimum of individual contributions of 6 apparently healthy volunteers. Blood was collected ( 9 vol blood/ 1 volume 0.11 M citrate) in tubes and mixed directly after withdrawal. The Blood was cooled by submersion in ice water and centrifuged in a cooled, swing-out centrifuge for at least 20 minutes at 2000 x g. Subsequently, plasma was carefully separated from the cells and collected in an intermediate , cooled plastic tube. The collected plasma was mixed and centrifuged similarly after which platelet-poor-plasma was collected, aliquoted and after snap-freezing stored at -60 °C or below.
# (§2) Different PT assays were used using PT assays commercially available as Simplastin excel S (BioMerieux), Innovin (Dade Behring), Neoplastin CI plus (Stago), Recombiplastin (Instrumentation Laboratories) and Thromborel S (Dade Behring). In each case The reagent consisted of Tissue factor, lipid and CaCl2. Tests were performed in a clotting analyser (AMAX Destiny, Kordia Lifesciences, Leiden, NL). In each case a cuvette was filled with 100 µl plasma and incubated for 1 minute at 37 °C. Pre-warmed PT reagent was added (200 µl) and recording of clotting was started. The AMAX recorded blood clotting by reduction in speed of a turning rod (mechanical detection).
# (§3) For spiking experiments with rivaroxaban (Xarelto, from Bayer), the plasma sample was spiked with rivaroxaban at different concentrations between […], and the clotting times were again recorded using the different PT reagents. The results are plotted in Figure 1.
# [2] = test system: pooled human citrated plasma; assay: Prothrombin time (PT) clotting assay with Innovin
# Experimental: as §1, §2, §3
# [3] = test system: pooled human citrated plasma; assay: Prothrombin time (PT) clotting assay with Neoplastin CI plus
# Experimental: as §1, §2, §3
# [4] = test system: pooled human citrated plasma; assay: Prothrombin time (PT) clotting assay with Recombiplastin
# Experimental: as §1, §2, §3
# [5] = test system: pooled human citrated plasma; assay: Prothrombin time (PT) clotting assay with Thromborel S
# Experimental: as §1, §2, §3
# [6] = test system: pooled human citrated plasma; assay: Prothrombin time (PT) clotting assay with Thromboplastin S
# Experimental: as §1
# (§4) Different PT assays were used using PT assays commercially available as Simplastin excel S (BioMerieux), Innovin (Dade Behring), Neoplastin CI plus (Stago), Recombiplastin (Instrumentation Laboratories) and Thromborel S (Dade Behring). In each case The reagent consisted of Tissue factor, lipid and CaCl2. […] The AMAX recorded blood clotting by reduction in speed of a turning rod (mechanical detection).
# (§5) For spiking experiments with rivaroxaban (Xarelto, from Bayer), the plasma sample was spiked with rivaroxaban at different concentrations between […], and the clotting times were again recorded using the different PT reagents. […]
# [7] = test system: pooled human citrated plasma; assay: Prothrombin time (PT) clotting assay with PT fibrinogen
# Experimental: as §1, §2, §3
# (§6) Example 1a was repeated with PT clotting assays Thromboplastin S (Biopool, through Trinity),PT fibrinogen (Instrumentation Laboratories), PT fibrinogen recombinant (Instrumentation Laboratories), Thromboplastin C plus ( Siemens) and Simplastin Excel (Biomerieux).
# [8] = test system: pooled human citrated plasma; assay: Prothrombin time (PT) clotting assay with PT fibrinogen recombinant
# Experimental: as §1, §2, §3, §6
# [9] = test system: pooled human citrated plasma; assay: Prothrombin time (PT) clotting assay with Thromboplastin C plus
# Experimental: as §1, §2, §3, §6
# [10] = test system: pooled human citrated plasma; assay: Prothrombin time (PT) clotting assay with Simplastin Excel
# Experimental: as §1, §2, §3, §6
# [11] = test system: pooled human citrated plasma; assay: PT clotting assay with Simplastin Excel S in presence of RVV-V; conditions: RVV-V added prior to the clotting experiment, Figure 2
# Experimental: as §1
# as §4, with “detection). […]” for “detection).”
# as §5
# [12] = test system: pooled human citrated plasma; assay: PT clotting assay with Innovin in presence of RVV-V; conditions: Figure 2
# Experimental: as §1
# as §4, with “detection). […]” for “detection).”
# as §5
# [13] = 200 ng/ml rivaroxaban spiked in plasma
# [14] = 600 ng/ml rivaroxaban spiked in plasma
# [15] = PT ratio compared to reference value ("0"), up to 600 ng/ml rivaroxaban
structure (smiles),measurement,setting,value
"O=C(NC[C@H]1CN(c2ccc(N3CCOCC3=O)cc2)C(=O)O1)c1ccc(Cl)s1 [rivaroxaban, Rivaroxaban]",Sensitivity of PT assay for rivaroxaban,"[1]; Simplastin Excel S and/or Triniclot Excel S, within the therapeutic range (ratio window 2 - 5)",high sensitivity
same,Rivaroxaban-prolonged PT,"[1]; Simplastin Excel S, without RVV-V, 200 -",80 s
same,Prothrombin time,"[1]; Simplastin excel S, 200 µg/ml rivaroxaban spiked in plasma",41.0 s
same,Ratio range,"[1]; Simplastin excel S, PT ratio compared to reference value (""0""), up",1.0-5.0
same,Prothrombin time,"[1]; Simplastin excel S, spiked in plasma",80.8 s
same,Prothrombin time,[2]; [13],12.0 s
same,Prothrombin time,[2]; [14],17.1 s
same,Ratio range,[2]; [15],1.0- 1.8
same,Change in PT for rivaroxaban,"[2]; without RVV-V, Figure 2",no significant change in PT
same,Prothrombin time,[3]; [13],20.0 s
same,Prothrombin time,[3]; [14],35.0 s
same,Ratio range,[3]; [15],1.0-2.6
same,Prothrombin time,[4]; [13],16.8 s
same,Prothrombin time,[4]; [14],26.2 s
same,Ratio range,[4]; [15],1.0-2.5
same,Prothrombin time,[5]; [13],21.1 s
same,Prothrombin time,[5]; [14],26.7 s
same,Ratio range,[5]; [15],1.0-1.7
same,Prothrombin time,[6]; [14],51.6 s
same,Ratio range,[6]; [15],1.0-2.4
same,Prothrombin time,[7]; [13],38.5 s
same,Prothrombin time,[7]; [14],62.7 s
same,Ratio range,[7]; [15],1.0-2.8
same,Prothrombin time,[8]; [13],32.9 s
same,Prothrombin time,[8]; [14],45.4 s
same,Ratio range,[8]; [15],1.0-1.9
same,Prothrombin time,[9]; [13],44.3 s
same,Prothrombin time,[9]; [14],73.5 s
same,Ratio range,[9]; [15],1.0-3.1
same,Prothrombin time,[10]; [13],40.0 s
same,Prothrombin time,[10]; [14],63.1 s
same,Ratio range,[10]; [15],1.0-3.1
same,Effect of RVV-V on prolonged PT,[11],completely vanished
same,Change in PT for rivaroxaban,[12],no significant change in PT
